Laboratory results published in the supplement of paper PMC10307832.

Legend:
Test in all cases: relative viability (nuclei count vs DMSO), 5 days (fraction); higher = more cells survive
EHT 1864 + OSI-027 = compound: C1COCCN1CC2=CC(=O)C(=CO2)OCCCCCSC3=C4C=CC(=CC4=NC=C3)C(F)(F)F [EHT 1864] + COc1cccc2cc(-c3nc([C@H]4CC[C@H](C(=O)O)CC4)n4ncnc(N)c34)[nH]c12 [OSI-027] (partner 0.5 µM)
How it was run: (§1)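 Lung cancer cell lines were seeded in 1536-well plates and dosed by pin tool the next day, with either a single drug or a fixed anchor-drug dose combined with five library-drug doses (not always all listed) spaced in √10 steps. Five days later, one step fixed the cells and stained their nuclei (final 0.05% Triton X-100, 1% formaldehyde, 1 ug/ml Hoechst), and nuclei were counted on 4× images. Relative viability is the nuclei count in treated wells divided by the count in vehicle wells, and each value is the median of duplicate plates.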

EHT 1864 + Palbociclib = compound: C1COCCN1CC2=CC(=O)C(=CO2)OCCCCCSC3=C4C=CC(=CC4=NC=C3)C(F)(F)F [EHT 1864] + CC(=O)c1c(C)c2cnc(Nc3ccc(N4CCNCC4)cn3)nc2n(C2CCCC2)c1=O [Palbociclib] (partner 0.5 µM)
How it was run: as §1

EHT 1864 + Pictilisib = compound: C1COCCN1CC2=CC(=O)C(=CO2)OCCCCCSC3=C4C=CC(=CC4=NC=C3)C(F)(F)F [EHT 1864] + CS(=O)(=O)N1CCN(Cc2cc3nc(-c4cccc5[nH]ncc45)nc(N4CCOCC4)c3s2)CC1 [Pictilisib] (partner 1 µM)
How it was run: as §1

EHT 1864 + Luminespib = compound: C1COCCN1CC2=CC(=O)C(=CO2)OCCCCCSC3=C4C=CC(=CC4=NC=C3)C(F)(F)F [EHT 1864] + CCNC(=O)c1noc(-c2cc(C(C)C)c(O)cc2O)c1-c1ccc(CN2CCOCC2)cc1 [Luminespib] (partner 0.01 µM)
How it was run: as §1

| Cell Line | relative viability (EHT 1864 + OSI-027; first compound 0.04 µM) | relative viability (EHT 1864 + OSI-027; first compound 0.1265 µM) | relative viability (EHT 1864 + OSI-027; first compound 0.4 µM) | relative viability (EHT 1864 + OSI-027; first compound 1.265 µM) | relative viability (EHT 1864 + OSI-027; first compound 4 µM) | relative viability (EHT 1864 + Palbociclib; first compound 0.04 µM) | relative viability (EHT 1864 + Palbociclib; first compound 0.1265 µM) | relative viability (EHT 1864 + Palbociclib; first compound 0.4 µM) | relative viability (EHT 1864 + Palbociclib; first compound 1.265 µM) | relative viability (EHT 1864 + Palbociclib; first compound 4 µM) | relative viability (EHT 1864 + Pictilisib; first compound 0.04 µM) | relative viability (EHT 1864 + Pictilisib; first compound 0.1265 µM) | relative viability (EHT 1864 + Pictilisib; first compound 0.4 µM) | relative viability (EHT 1864 + Pictilisib; first compound 1.265 µM) | relative viability (EHT 1864 + Pictilisib; first compound 4 µM) | relative viability (EHT 1864 + Luminespib; first compound 0.04 µM) | relative viability (EHT 1864 + Luminespib; first compound 0.1265 µM) | relative viability (EHT 1864 + Luminespib; first compound 0.4 µM) | relative viability (EHT 1864 + Luminespib; first compound 1.265 µM) | relative viability (EHT 1864 + Luminespib; first compound 4 µM) |
| --- | --- | --- | --- | --- | --- | --- | --- | --- | --- | --- | --- | --- | --- | --- | --- | --- | --- | --- | --- | --- |
| HCC-44 | 0.573 | 0.383 | 0.525 | 0.522 | 0.575 | 0.985 | 0.999 | 0.94 | 0.899 | 0.918 | 0.412 | 0.37 | 0.604 | 0.573 | 0.694 | 1.04 | 0.906 | 0.924 | 1.02 | 1.33 |
| NCI-H460 | 0.678 | 0.576 | 0.649 | 0.621 | 0.552 | – | 0.155 | 0.16 | 0.16 | 0.173 | 0.379 | 0.401 | 0.365 | 0.251 | 0.345 | 0.0334 | 0.0284 | 0.0337 | 0.0326 | 0.0353 |
| SK-LU-1 | 0.357 | 0.262 | 0.32 | 0.33 | 0.312 | 0.474 | 0.323 | 0.395 | 0.37 | 0.352 | 0.619 | 0.519 | 0.619 | 0.542 | 0.583 | 0.184 | 0.181 | 0.214 | 0.229 | 0.219 |
| NCI-H322M | 0.591 | 0.444 | 0.535 | 0.585 | 0.533 | 0.488 | 0.488 | 0.434 | 0.456 | 0.465 | 0.519 | 0.514 | 0.533 | 0.529 | 0.572 | 0.877 | 0.859 | 0.955 | 0.529 | 1.06 |
| EKVX | 0.705 | 0.68 | 0.698 | 0.711 | 0.839 | 0.351 | 0.401 | 0.441 | 0.292 | 0.374 | 0.396 | 0.428 | 0.496 | 0.485 | 0.437 | 0.9 | 0.871 | 0.834 | 0.836 | 0.885 |
| NCI-H1734 | 0.706 | – | 0.611 | 0.66 | 0.592 | 0.411 | 0.314 | 0.337 | 0.337 | 0.356 | 0.485 | 0.455 | 0.455 | 0.452 | 0.418 | 0.242 | – | 0.222 | 0.182 | 0.179 |
| ABC-1 | 0.469 | 0.504 | 0.48 | 0.513 | 0.436 | 0.629 | 0.631 | 0.692 | 0.687 | 0.577 | 0.935 | 0.713 | 0.814 | 0.824 | 0.73 | 0.816 | – | 0.48 | 0.387 | 0.422 |
| NCI-H520 | 0.266 | 0.25 | 0.247 | 0.24 | 0.224 | 0.227 | 0.212 | 0.258 | 0.225 | 0.231 | 0.346 | 0.27 | 0.308 | 0.324 | 0.336 | 0.221 | 0.227 | 0.219 | 0.193 | 0.234 |
| EPLC-272H | 0.296 | 0.254 | 0.257 | 0.324 | 0.253 | 0.356 | 0.353 | 0.317 | 0.33 | 0.352 | 0.307 | 0.275 | 0.446 | 0.166 | 0.278 | 0.347 | 0.365 | 0.266 | 0.521 | 0.606 |
| UMC-11 | 0.463 | 0.366 | – | 0.483 | 0.47 | 0.339 | 0.266 | 0.281 | 0.343 | 0.31 | 0.829 | 0.591 | 0.903 | 0.63 | 0.883 | 1.03 | 0.925 | – | 1.02 | 1.12 |
| NCI-H1792 | 0.67 | 0.65 | 0.717 | 0.689 | 0.68 | 0.618 | 0.694 | 0.683 | 0.626 | 0.742 | 0.259 | 0.302 | 0.27 | 0.288 | 0.348 | 0.393 | – | 0.376 | 0.361 | 0.533 |
| NCI-H1993 | 0.548 | – | 0.541 | 0.554 | 0.553 | 0.693 | – | 0.682 | 0.664 | 0.741 | 0.88 | 1.04 | 0.788 | 0.866 | 0.894 | 0.737 | – | 0.813 | 0.865 | 0.795 |
| NCI-H1944 | 0.44 | – | 0.443 | 0.417 | 0.399 | 0.327 | – | 0.353 | 0.311 | 0.332 | 0.355 | – | 0.344 | 0.359 | 0.312 | 0.827 | – | 0.74 | 0.712 | 0.802 |
| NCI-H1395 | 0.649 | 0.515 | 0.683 | 0.621 | 0.696 | 0.61 | 0.595 | 0.631 | 0.57 | 0.614 | 0.66 | 0.557 | 0.58 | 0.59 | 0.588 | 0.605 | 0.688 | 0.648 | 0.76 | 0.673 |
| HCC-827 | 0.733 | 0.646 | 0.732 | 0.7 | 0.657 | 0.57 | 0.498 | 0.508 | 0.473 | 0.386 | 1.15 | 1.11 | 1 | 0.875 | 1.12 | 0.517 | 0.427 | 0.465 | 0.487 | 0.588 |
| ChaGo-K-1 | 0.512 | 0.476 | 0.7 | 0.562 | 0.517 | 0.946 | 0.904 | 0.951 | 0.852 | 0.911 | 0.816 | 0.664 | 0.736 | – | 0.806 | 0.487 | 0.604 | 0.703 | 0.547 | 0.559 |
| NCI-H2228 | 0.637 | 0.48 | 0.666 | 0.522 | 0.588 | 0.881 | 0.634 | 0.642 | – | 0.777 | 0.414 | 0.357 | 0.267 | 0.417 | 0.443 | 0.143 | 0.145 | 0.182 | 0.193 | 0.0861 |
